Assays:
Ephrin type-A receptor 2 = Ephrin type-A receptor 2 (Homo sapiens, UniProt P29317)
[1] = biological target: T1, Mitogen-activated protein kinase 12 (Homo sapiens, UniProt P53778)
T1 sequence (P53778 whole entry): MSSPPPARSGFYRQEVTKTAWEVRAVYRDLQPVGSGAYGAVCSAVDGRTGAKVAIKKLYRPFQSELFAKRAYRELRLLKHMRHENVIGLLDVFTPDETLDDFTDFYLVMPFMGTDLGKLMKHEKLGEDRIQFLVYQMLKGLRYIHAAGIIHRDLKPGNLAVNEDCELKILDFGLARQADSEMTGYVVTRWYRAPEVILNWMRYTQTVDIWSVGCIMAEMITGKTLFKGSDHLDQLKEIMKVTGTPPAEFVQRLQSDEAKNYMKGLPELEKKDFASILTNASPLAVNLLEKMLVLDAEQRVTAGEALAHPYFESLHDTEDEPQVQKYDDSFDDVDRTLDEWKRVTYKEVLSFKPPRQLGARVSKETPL

[2] = biological target: Ribosomal protein S6 kinase alpha-2 (Homo sapiens, UniProt Q15349)
[3] = biological target: Tyrosine-protein kinase Fyn (Homo sapiens, UniProt P06241)
Ephrin type-B receptor 4 = biological target: T2, Ephrin type-B receptor 4 (Homo sapiens, UniProt P54760)
T2 sequence (P54760 whole entry): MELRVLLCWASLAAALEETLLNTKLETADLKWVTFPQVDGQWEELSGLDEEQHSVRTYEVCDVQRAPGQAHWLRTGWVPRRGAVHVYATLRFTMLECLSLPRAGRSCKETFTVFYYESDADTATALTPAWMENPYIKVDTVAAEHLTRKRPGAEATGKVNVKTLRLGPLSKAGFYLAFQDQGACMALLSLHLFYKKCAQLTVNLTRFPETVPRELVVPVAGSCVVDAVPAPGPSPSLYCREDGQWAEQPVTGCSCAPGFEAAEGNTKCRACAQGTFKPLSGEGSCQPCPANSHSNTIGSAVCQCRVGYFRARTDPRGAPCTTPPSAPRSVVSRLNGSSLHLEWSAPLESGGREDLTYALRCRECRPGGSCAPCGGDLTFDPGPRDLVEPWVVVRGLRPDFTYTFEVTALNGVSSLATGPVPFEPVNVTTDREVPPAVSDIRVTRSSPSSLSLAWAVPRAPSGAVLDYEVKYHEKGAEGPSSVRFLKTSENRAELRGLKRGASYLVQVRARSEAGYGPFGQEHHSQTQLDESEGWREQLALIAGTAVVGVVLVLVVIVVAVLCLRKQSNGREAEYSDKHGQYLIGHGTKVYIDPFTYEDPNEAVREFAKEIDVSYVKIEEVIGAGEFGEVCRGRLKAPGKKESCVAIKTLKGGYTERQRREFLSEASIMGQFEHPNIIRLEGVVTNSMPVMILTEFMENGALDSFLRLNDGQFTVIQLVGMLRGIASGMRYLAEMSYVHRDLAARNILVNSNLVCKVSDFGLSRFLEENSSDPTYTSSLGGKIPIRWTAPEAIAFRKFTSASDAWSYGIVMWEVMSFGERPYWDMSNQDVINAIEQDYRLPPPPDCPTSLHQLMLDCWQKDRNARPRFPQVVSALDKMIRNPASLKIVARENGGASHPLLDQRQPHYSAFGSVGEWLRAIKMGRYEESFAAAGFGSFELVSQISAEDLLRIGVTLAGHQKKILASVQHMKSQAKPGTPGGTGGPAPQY

[4] = biological target: Serine/threonine-protein kinase 38-like (Homo sapiens, UniProt Q9Y2H1)
[5] = biological target: 5'-AMP-activated protein kinase catalytic subunit alpha-1 (Homo sapiens, UniProt Q13131)
[6] = biological target: T3, Serine/threonine-protein kinase Nek9 (Homo sapiens, UniProt Q8TD19)
T3 sequence (Q8TD19 whole entry): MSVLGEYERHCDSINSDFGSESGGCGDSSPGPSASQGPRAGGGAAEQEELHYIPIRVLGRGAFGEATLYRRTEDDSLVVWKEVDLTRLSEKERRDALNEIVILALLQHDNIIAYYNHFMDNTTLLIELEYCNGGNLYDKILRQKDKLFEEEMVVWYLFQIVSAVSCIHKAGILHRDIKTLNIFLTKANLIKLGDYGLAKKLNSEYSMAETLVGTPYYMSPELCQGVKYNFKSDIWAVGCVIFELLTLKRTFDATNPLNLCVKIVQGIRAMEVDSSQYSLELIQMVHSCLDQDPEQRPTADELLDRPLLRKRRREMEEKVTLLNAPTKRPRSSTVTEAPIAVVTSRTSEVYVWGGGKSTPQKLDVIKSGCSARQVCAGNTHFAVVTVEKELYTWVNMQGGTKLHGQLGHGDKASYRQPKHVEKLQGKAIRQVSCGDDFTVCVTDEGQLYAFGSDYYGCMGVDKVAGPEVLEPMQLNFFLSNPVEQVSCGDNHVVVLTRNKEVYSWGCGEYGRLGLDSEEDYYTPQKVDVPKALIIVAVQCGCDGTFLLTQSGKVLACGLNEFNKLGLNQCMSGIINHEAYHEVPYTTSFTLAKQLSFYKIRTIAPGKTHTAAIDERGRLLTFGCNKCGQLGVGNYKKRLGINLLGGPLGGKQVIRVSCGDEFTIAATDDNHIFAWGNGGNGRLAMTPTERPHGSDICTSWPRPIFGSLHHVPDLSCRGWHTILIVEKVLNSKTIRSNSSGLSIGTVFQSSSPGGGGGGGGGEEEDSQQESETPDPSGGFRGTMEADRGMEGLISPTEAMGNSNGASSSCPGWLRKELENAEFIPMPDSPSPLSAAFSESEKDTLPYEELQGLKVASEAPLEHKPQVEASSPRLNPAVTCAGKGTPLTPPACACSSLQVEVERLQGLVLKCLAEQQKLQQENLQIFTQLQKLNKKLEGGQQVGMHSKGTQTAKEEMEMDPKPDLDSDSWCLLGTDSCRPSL

[7] = biological target: Tyrosine-protein kinase Lyn (Homo sapiens, UniProt P07948)
[8] = biological target: Fibroblast growth factor receptor 3 (Homo sapiens, UniProt P22607)

Measured: Kd

Sequence of Fibroblast growth factor receptor 3 (P22607 whole entry): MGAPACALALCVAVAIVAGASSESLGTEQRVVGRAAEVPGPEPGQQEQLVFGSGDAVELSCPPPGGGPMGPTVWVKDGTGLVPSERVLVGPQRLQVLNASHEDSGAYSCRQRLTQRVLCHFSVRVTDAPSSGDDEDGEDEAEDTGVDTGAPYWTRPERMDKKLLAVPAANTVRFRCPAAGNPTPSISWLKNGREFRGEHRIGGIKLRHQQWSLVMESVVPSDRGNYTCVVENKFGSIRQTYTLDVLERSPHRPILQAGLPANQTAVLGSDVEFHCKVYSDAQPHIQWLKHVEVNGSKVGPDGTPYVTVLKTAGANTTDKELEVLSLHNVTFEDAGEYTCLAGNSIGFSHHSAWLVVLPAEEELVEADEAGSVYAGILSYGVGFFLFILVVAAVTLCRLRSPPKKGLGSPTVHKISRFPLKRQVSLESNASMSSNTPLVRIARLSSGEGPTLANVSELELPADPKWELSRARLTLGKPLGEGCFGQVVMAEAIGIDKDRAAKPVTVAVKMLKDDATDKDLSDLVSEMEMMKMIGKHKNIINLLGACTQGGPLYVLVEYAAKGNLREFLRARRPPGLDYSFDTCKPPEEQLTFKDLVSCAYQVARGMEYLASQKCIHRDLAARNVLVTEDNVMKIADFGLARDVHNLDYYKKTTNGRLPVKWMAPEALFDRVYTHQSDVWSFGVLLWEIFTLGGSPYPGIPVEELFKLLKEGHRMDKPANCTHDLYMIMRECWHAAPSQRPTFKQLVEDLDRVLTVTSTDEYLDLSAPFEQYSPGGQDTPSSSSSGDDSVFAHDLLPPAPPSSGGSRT
Sequence of Ephrin type-A receptor 2 (P29317 whole entry): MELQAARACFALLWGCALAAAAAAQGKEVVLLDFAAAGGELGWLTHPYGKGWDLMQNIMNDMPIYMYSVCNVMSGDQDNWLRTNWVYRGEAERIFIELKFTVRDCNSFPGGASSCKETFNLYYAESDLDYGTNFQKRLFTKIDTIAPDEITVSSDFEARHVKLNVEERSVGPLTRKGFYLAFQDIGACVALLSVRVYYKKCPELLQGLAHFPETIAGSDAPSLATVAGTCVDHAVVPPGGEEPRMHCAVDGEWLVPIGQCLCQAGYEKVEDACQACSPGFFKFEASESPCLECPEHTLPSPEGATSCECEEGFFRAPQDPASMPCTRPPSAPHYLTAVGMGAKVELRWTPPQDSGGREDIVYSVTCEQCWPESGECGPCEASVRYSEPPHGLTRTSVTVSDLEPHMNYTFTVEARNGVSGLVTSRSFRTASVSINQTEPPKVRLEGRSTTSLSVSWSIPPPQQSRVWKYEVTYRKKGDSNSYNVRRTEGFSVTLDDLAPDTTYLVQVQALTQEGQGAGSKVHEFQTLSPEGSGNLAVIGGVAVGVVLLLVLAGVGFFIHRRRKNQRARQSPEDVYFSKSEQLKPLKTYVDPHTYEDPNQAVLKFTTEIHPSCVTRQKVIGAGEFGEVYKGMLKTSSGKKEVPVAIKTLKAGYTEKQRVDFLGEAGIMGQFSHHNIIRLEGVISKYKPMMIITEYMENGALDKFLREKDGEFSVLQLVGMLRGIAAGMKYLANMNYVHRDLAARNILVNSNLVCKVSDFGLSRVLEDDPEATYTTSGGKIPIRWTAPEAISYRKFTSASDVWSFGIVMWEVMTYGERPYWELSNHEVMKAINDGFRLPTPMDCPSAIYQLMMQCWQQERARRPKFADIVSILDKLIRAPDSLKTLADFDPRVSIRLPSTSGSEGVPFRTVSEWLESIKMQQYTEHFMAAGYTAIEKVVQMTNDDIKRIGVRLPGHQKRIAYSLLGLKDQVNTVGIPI
Sequence of Tyrosine-protein kinase Lyn (P07948 whole entry): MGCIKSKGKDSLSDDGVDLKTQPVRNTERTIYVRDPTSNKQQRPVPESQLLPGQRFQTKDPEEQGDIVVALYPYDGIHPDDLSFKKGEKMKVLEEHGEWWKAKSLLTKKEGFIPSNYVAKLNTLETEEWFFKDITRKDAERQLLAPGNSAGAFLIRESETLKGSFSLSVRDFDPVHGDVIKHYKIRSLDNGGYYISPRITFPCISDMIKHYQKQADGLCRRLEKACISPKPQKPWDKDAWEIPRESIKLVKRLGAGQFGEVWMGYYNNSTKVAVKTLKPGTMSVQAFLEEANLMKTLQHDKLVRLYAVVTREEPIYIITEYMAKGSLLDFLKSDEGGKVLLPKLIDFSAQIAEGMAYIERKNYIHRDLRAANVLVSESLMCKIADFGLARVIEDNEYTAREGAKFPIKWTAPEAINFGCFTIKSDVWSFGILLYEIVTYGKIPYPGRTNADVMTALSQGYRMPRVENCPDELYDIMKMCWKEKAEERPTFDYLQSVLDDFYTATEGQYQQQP
Sequence of Serine/threonine-protein kinase 38-like (Q9Y2H1 whole entry): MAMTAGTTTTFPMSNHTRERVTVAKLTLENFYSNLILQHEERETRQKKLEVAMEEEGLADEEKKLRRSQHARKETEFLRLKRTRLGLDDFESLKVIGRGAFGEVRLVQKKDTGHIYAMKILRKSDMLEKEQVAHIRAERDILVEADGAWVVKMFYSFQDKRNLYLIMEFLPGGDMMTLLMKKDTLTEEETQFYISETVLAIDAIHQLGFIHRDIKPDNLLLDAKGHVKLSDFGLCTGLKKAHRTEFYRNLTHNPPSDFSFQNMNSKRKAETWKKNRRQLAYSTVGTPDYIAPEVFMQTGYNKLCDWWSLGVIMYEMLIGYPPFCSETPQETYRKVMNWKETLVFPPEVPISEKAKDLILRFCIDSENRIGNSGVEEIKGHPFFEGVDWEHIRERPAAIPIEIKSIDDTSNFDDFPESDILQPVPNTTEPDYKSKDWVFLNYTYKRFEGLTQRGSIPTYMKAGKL
Sequence of 5'-AMP-activated protein kinase catalytic subunit alpha-1 (Q13131 whole entry): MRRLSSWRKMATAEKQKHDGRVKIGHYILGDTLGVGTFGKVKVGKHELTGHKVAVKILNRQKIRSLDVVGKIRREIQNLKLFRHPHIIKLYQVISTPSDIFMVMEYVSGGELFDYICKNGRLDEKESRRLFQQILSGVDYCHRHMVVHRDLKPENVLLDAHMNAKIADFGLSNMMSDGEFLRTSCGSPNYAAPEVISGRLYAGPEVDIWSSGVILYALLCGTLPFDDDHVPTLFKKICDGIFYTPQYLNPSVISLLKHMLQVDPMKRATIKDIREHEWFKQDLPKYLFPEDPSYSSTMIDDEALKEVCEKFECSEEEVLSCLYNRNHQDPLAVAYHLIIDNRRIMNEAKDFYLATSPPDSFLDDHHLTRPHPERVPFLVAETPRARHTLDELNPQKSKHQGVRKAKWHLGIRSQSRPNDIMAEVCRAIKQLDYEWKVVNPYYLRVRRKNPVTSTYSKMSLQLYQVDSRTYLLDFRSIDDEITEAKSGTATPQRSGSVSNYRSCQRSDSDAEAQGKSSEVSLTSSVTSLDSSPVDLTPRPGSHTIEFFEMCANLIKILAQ
Sequence of Tyrosine-protein kinase Fyn (P06241 whole entry): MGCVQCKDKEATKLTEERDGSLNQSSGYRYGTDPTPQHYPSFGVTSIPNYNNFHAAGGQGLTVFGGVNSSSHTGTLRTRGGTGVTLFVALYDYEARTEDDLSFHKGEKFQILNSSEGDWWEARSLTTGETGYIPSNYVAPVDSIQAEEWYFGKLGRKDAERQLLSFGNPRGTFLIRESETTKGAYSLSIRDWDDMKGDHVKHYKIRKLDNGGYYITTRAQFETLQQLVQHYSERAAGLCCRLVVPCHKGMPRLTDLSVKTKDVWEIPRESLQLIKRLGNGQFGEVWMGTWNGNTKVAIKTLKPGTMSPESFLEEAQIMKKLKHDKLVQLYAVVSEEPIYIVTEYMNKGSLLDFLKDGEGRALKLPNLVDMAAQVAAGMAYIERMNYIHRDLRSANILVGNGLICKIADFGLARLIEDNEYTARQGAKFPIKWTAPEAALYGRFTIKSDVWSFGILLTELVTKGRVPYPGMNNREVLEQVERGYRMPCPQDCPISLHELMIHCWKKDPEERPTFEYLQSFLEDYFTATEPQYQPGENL
Sequence of Ribosomal protein S6 kinase alpha-2 (Q15349 whole entry): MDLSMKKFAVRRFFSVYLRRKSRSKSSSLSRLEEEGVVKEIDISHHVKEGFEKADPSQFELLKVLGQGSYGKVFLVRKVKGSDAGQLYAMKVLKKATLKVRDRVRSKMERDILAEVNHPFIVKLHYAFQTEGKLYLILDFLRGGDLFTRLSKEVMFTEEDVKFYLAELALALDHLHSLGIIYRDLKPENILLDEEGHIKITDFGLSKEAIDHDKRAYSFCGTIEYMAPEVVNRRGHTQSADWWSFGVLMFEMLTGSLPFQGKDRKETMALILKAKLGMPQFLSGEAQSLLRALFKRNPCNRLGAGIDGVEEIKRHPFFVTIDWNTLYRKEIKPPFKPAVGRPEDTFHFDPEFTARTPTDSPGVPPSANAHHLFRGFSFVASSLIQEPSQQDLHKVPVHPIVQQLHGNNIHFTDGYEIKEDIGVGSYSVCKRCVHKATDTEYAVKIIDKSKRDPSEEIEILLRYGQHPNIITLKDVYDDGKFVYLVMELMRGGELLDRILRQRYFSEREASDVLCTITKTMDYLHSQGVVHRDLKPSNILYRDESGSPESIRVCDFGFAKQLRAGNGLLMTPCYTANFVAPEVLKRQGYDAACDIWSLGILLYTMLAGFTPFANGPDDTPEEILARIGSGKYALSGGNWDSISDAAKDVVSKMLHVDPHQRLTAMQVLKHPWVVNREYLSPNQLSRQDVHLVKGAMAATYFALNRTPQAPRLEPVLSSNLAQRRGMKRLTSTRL

C#Cc1cccc(Nc2ncnc3cc(OCCOC)c(OCCOC)cc23)c1 [ERLOTINIB]
Not Active: all assays above

COc1cc2c(N3CCN(C(=O)Nc4ccc(OC(C)C)cc4)CC3)ncnc2cc1OCCCN1CCCCC1 [TANDUTINIB]
Not Active: all assays above

O=c1ncn2nc(Sc3ccc(F)cc3F)ccc2c1-c1c(Cl)cccc1Cl [NEFLAMAPIMOD]
not listed: Ephrin type-A receptor 2 | Ephrin type-B receptor 4
Not Active: all other assays above

C[S+]([O-])c1ccc(-c2nc(-c3ccc(F)cc3)c(-c3ccncc3)[nH]2)cc1 (stereo unspecified) [SB-203580]
not listed: [1]
Not Active: all other assays above

Cc1ccc(NC(=O)c2ccc(CN3CCN(C)CC3)cc2)cc1Nc1nccc(-c2cccnc2)n1 [IMATINIB]
not listed: [3]
Not Active: all other assays above

CC[C@H](CO)Nc1nc(NCc2ccccc2)c2ncn(C(C)C)c2n1 [SELICICLIB]
not listed: [2]
Not Active: all other assays above

Oc1ccc(-c2nc(-c3ccc(F)cc3)c(-c3ccncc3)[nH]2)cc1 [SB-202190]
not listed: [1]
Not Active: all other assays above

CCOc1cc2ncc(C#N)c(Nc3ccc(F)c(Cl)c3)c2cc1NC(=O)/C=C/CN(C)C [PELITINIB]
Not Active: Ephrin type-A receptor 2 | [1] | [5] | [6] | [8]

Oc1c2ccccc2c2c3c(cccc13)N=N2 [SP-600125]
not listed: [1] | [2] | [4]
Not Active: all other assays above
